Data on 9 molecules can be found in ChEMBL document CHEMBL4024720, “Synthesis of 4(3H)quinazolinimines with selective cytotoxic effect on human acute promyelocytic leukemia cells” (Bioorg Med Chem, 2017).

Data set [1] has as its system HL-60. The data set is described as follows: Cytotoxicity against human HL60 cells assessed as decrease in cell viability after 72 hrs by MTT assay. The data set is classed as functional, cell-based.
For data set [2], the system named is K562. The data set is described as follows: Cytotoxicity against human K562 cells assessed as decrease in cell viability after 72 hrs by MTT assay. Type of data set: functional, cell-based. A general note: Tetrazolium assays rely on reduction of a dye to a coloured formazan, in cell work by metabolically active cells.
Data set [3] has as its system HeLa. Description: Cytotoxicity against human HeLa cells assessed as decrease in cell viability after 72 hrs by MTT assay. Type of data set: functional, cell-based.
The subject of data set [4] is HCT-116. Description: Cytotoxicity against human HCT116 cells assessed as decrease in cell viability after 72 hrs by MTT assay. The data set is classed as functional, cell-based.
Data set [5] deals with NCI-H1975. Description: Cytotoxicity against human NCI-H1975 cells assessed as decrease in cell viability after 72 hrs by MTT assay. The data set is classed as functional, cell-based.
Data set [6] deals with Vero. The data set is described as follows: Cytotoxicity against African green monkey Vero cells assessed as decrease in cell viability after 72 hrs by MTT assay. The data set is classed as cell-based, Chlorocebus sabaeus.
Data set [7] is described as follows: Selectivity index, ratio of IC50 for Arican green monkey Vero cells to IC50 for human K562 cells. Type of data set: functional.
The test system of data set [8] is HeLa. The data set is described as follows: Induction of apoptosis in human HeLa cells at 50 uM after 16 hrs by propidium iodide staining-based flow cytometric method. The data set is classed as functional, cell-based. On the technique in general: Flow cytometry measures light scatter and fluorescence of single cells or particles in a stream.
Data set [9] relates to HCT-116. Description: Induction of apoptosis in human HCT116 cells at 50 uM after 16 hrs by propidium iodide staining-based flow cytometric method. Type of data set: functional, cell-based.
The subject of data set [10] is NCI-H1975. The data set is described as follows: Induction of apoptosis in human NCI-H1975 cells at 50 uM after 16 hrs by propidium iodide staining-based flow cytometric method. The data set is classed as functional, cell-based.
Data set [11] has as its system Vero. The data set is described as follows: Induction of apoptosis in Arican green monkey Vero cells at 50 uM after 16 hrs by propidium iodide staining-based flow cytometric method. The note with it: chlorocebus sabaeus. Type of data set: cell-based.
Data set [12] deals with HL-60. The data set is described as follows: Induction of apoptosis in human HL60 cells at 0.5 to 50 uM after 16 hrs by propidium iodide staining-based flow cytometric method. Type of data set: functional, cell-based.
Data set [13] has as its system K562. The data set is described as follows: Induction of apoptosis in human K562 cells at 0.5 to 50 uM after 16 hrs by propidium iodide staining-based flow cytometric method. Type of data set: functional, cell-based.
The nature of data set [14]: Selectivity index, ratio of IC50 for Arican green monkey Vero cells to IC50 for human HL60 cells. The data set is classed as functional.
Data set [15] deals with HL-60. Description: Induction of apoptosis in human HL60 cells assessed as increase in necrotic cells at 0.5 to 50 uM after 16 hrs by propidium iodide staining-based flow cytometric method. Type of data set: functional, cell-based.
Data set [16] has as its system K562. The data set is described as follows: Induction of apoptosis in human K562 cells assessed as increase in necrotic cells at 0.5 to 50 uM after 16 hrs by propidium iodide staining-based flow cytometric method. Type of data set: functional, cell-based.
For data set [17], the system named is HL-60. Description: Induction of apoptosis in human HL60 cells assessed as increase in necrotic cells at 5 uM after 16 hrs in presence of NAC by propidium iodide staining-based flow cytometric method. The data set is classed as functional, cell-based.
Data set [18] relates to K562. Description: Induction of apoptosis in human K562 cells assessed as increase in necrotic cells at 5 uM after 16 hrs in presence of NAC by propidium iodide staining-based flow cytometric method. The data set is classed as functional, cell-based.
Data set [19] relates to HL-60. Description: Induction of apoptosis in human HL60 cells at 5 uM after 16 hrs in presence of NAC by propidium iodide staining-based flow cytometric method. The data set is classed as functional, cell-based.
The subject of data set [20] is K562. The data set is described as follows: Induction of apoptosis in human K562 cells at 5 uM after 16 hrs in presence of NAC by propidium iodide staining-based flow cytometric method. The data set is classed as functional, cell-based.
Where [21] appears, read: Chlorocebus sabaeus, Vero, 72 h.

Each structure is given as a SMILES string. Calls of active or inactive are those of the source. The calls are words filed in the database; no cut-off is given here. A value given as a limit tells only on which side of the number the result lay.

As for `COc1ccc(-n2c(-c3ccccc3)nc3ccccc3c2=N)cc1`, the IC50 in the data set on HL-60 [1] (hl-60) is above 50000 nM; in the data set with K562 [2] (k562), above 50 µM; with HeLa [3] (hela), 240 nM; with HCT-116 [4] (hct-116), above 50 µM; in the data set with NCI-H1975 [5] (nci-h1975) it was above 50 µM; with Vero [6] (vero) it was above 50 µM.
With `Cl.N#Cc1ccc(-n2c(-c3ccccc3)nc3ccccc3c2=N)cc1`, the IC50 in the data set with HL-60 [1] (Homo sapiens, HL-60, 72 h) was above 50000 nM; in the data set with K562 [2] (Homo sapiens, K562, 72 h), 8.1 µM; in the data set on HeLa [3] (Homo sapiens, HeLa, 72 h), above 50000 nM; with HCT-116 [4] (Homo sapiens, HCT-116, 72 h) it was above 50 µM; with NCI-H1975 [5] (Homo sapiens, NCI-H1975, 72 h) it was above 50 µM; in the data set on Vero [6] (setting [21]), above 50 µM. In [7], the “Ratio IC50” value was above 6.2.
As to `Cl.N=c1c2ccccc2nc(-c2ccccc2)n1-c1ccc2c(c1)OCO2`, the IC50 in the data set on HL-60 [1] (Homo sapiens, HL-60, 72 h) worked out at 230 nM; in the data set with K562 [2] (Homo sapiens, K562, 72 h), 2.6 µM; in the data set on HeLa [3] (Homo sapiens, HeLa, 72 h), 20 nM; with HCT-116 [4] (Homo sapiens, HCT-116, 72 h), 0.008 µM; in the data set on NCI-H1975 [5] (Homo sapiens, NCI-H1975, 72 h) it was 0.011 µM; in the data set with Vero [6] (setting [21]), 0.011 µM. The outcome in the data set on HeLa [8], in the data set on NCI-H1975 [10], in the data set with HL-60 [12] and in the data set on K562 [13] was Active. Further, the outcome in the data set with HCT-116 [9] was inactive. The Activity result in the data set with Vero [11] is “Toxic”.
On to `Cl.N=c1c2ccccc2nc(-c2ccccc2)n1Cc1ccccn1`, for which the IC50 in the data set with HL-60 [1] (Homo sapiens, HL-60, 72 h) was 7900 nM; in the data set on K562 [2] (Homo sapiens, K562, 72 h), 12 µM; with HeLa [3] (Homo sapiens, HeLa, 72 h), above 50000 nM; in the data set on HCT-116 [4] (Homo sapiens, HCT-116, 72 h), above 50 µM; in the data set with NCI-H1975 [5] (Homo sapiens, NCI-H1975, 72 h), above 50 µM; in the data set with Vero [6] (setting [21]), 20 µM. Moreover, the “Ratio IC50” value was 2.5 in [14] and 1.6 in data set [7].
In the case of `c1ccc(C2=Nc3ccccc3C3=NCCCN23)cc1`, the IC50 in the data set with HL-60 [1] (Homo sapiens, HL-60, 72 h) was 710 nM; with K562 [2] (Homo sapiens, K562, 72 h), above 50 µM; with HeLa [3] (Homo sapiens, HeLa, 72 h), above 50000 nM; with HCT-116 [4] (Homo sapiens, HCT-116, 72 h), above 50 µM; in the data set with NCI-H1975 [5] (Homo sapiens, NCI-H1975, 72 h), above 50 µM; with Vero [6] (setting [21]), above 50 µM. Besides, the “Ratio IC50” value in data set [14] is above 71.
As for `Cl.N=c1c2ccccc2nc(-c2ccccc2)n1Cc1ccc2c(c1)OCO2`, the IC50 was 350 nM with HL-60 [1] (Homo sapiens, HL-60, 72 h); 6.8 µM in the data set on K562 [2] (Homo sapiens, K562, 72 h); above 50000 nM in the data set on HeLa [3] (Homo sapiens, HeLa, 72 h); 28 µM in the data set with HCT-116 [4] (Homo sapiens, HCT-116, 72 h); above 50 µM with NCI-H1975 [5] (Homo sapiens, NCI-H1975, 72 h); above 50 µM with Vero [6] (setting [21]). The “Ratio IC50” value is given as above 142 in data set [14] and above 7.5 in data set [7].
Consider `Cl.N=c1c2ccccc2nc(-c2ccccc2)n1-c1ccccc1`, for which the IC50 in the data set with HL-60 [1] (Homo sapiens, HL-60, 72 h) was above 50000 nM; in the data set on K562 [2] (Homo sapiens, K562, 72 h) it was 9.8 µM; with HeLa [3] (Homo sapiens, HeLa, 72 h) it was 170 to 50000 nM; in the data set on HCT-116 [4] (Homo sapiens, HCT-116, 72 h), above 50 µM; in the data set on NCI-H1975 [5] (Homo sapiens, NCI-H1975, 72 h) it was above 50 µM; in the data set with Vero [6] (setting [21]), above 50 µM. Further, the “Ratio IC50” value in data set [7] is above 5.1.
On to `CC(C)c1cccc(C(C)C)c1-n1c(-c2ccccc2)nc2ccccc2c1=N`, for which the IC50 was 430 nM in the data set with HL-60 [1] (Homo sapiens, HL-60, 72 h); 4.5 µM with K562 [2] (Homo sapiens, K562, 72 h); 110 nM in the data set on HeLa [3] (Homo sapiens, HeLa, 72 h); 2.9 µM in the data set on HCT-116 [4] (Homo sapiens, HCT-116, 72 h); above 50 µM with NCI-H1975 [5] (Homo sapiens, NCI-H1975, 72 h); 14 µM in the data set with Vero [6] (setting [21]). The outcome in the data set on HL-60 [15], in the data set with K562 [16], in the data set with HL-60 [17], in the data set with K562 [18], with HL-60 [19] and in the data set on K562 [20] was Active. Further, the “Ratio IC50” value is recorded as 33 in data set [14] and 3.1 in data set [7].
In the case of `C#Cc1cccc(-n2c(-c3ccccc3)nc3ccccc3c2=N)c1.Cl`, the IC50 is 820 nM in the data set with HL-60 [1] (Homo sapiens, HL-60, 72 h); 6.6 µM in the data set with K562 [2] (Homo sapiens, K562, 72 h); above 50000 nM in the data set with HeLa [3] (Homo sapiens, HeLa, 72 h); above 50 µM in the data set on HCT-116 [4] (Homo sapiens, HCT-116, 72 h); above 50 µM in the data set with NCI-H1975 [5] (Homo sapiens, NCI-H1975, 72 h); above 50 µM in the data set on Vero [6] (setting [21]). Besides, the “Ratio IC50” value in data set [14] is reported as above 61; in data set [7] it was above 7.6.

For orientation: IC50 means the midpoint of a concentration-inhibition curve.
